Assay results as given in patent US20250368647A1, “NITROGEN CONTAINING CONDENSED 2,3-DIHYDROQUINAZOLINONE COMPOUNDS AS NAV1.8 INHIBITORS” (GLAXOSMITHKLINE INTELLECTUAL PROPERTY DEVELOPMENT LIMITED, priority 2022, published 2025).

Molecular target: human Nav1.8 (Homo sapiens (Human), UniProt Q9Y5Y9)
Assay: QPatch 48 HTX voltage-clamp electrophysiology, half inactivation state (V1/2) protocol, HEK293-Nav1.8 cells
Assay type: cell-based
Conditions: HEK293 cells expressing human Nav1.8, human Navβ1 and human TREK1, P2 current
Procedure: Human embryonic kidney 293 cells (HEK293) expressing human Nav1.8, human Navβ1 and human TREK1 (HEK293-Nav1.8) were grown in T150 cell culture flasks at 37° C., 5% CO2 incubator. HEK293-Nav1.8 were passaged every 2-3 days when confluency reached 80-90% in T150 cell culture flasks.
Pharmacological assessment of compounds of the invention was performed using the QPatch 48 HTX electrophysiological platform. HEK293-Nav1.8 cells were prepared on the day of use by removing culture media, washing in DPBS, adding Accutase (2 mL to cover the surface, aspirate 1 mL then 1-2 minutes at 37° C.) followed by addition of CHO-SFM II to stop the enzyme digestion and in order to obtain a suspension of 3×10^6 cell/mL.
Compounds of the invention were prepared in an extracellular solution of the following composition: NaCl (145 mM), KCl (4 mM), CaCl2) (2 mM), MgCl (2 mM), HEPES (1 mM), Glucose (10 mM), pH 7.4 with NaOH Osmolality 300 mOsM/L. An intracellular solution of the following composition was used: CsF (115 mM), CsCl (20 mM), NaCl (5 mM), EGTA (10 mM), HEPES (10 mM), Sucrose (20 mM), pH 7.2 with CsOH Osmolality 310 mOsm/L.
Utilizing the voltage-clamp mode in the QPatch 48 HTX system a half inactivation state voltage protocol (V1/2) was used to determine pharmacological activity of compounds of the invention at Nav1.8 ion channels. A V1/2 protocol was utilized with the following voltage steps: a holding voltage of −100 mV was established followed by a 20 ms voltage step to 0 mV (P1), followed by an inactivating voltage step at −46 mV for 8 seconds, followed by a step to −100 mV for 20 ms, before a 20 ms step to 0 mV (P2), then returned to the holding voltage of −100 mV. This voltage protocol was repeated at a frequency of every 15 seconds, the current magnitude was quantified at the P2 step throughout the recording. Inhibition of the measured current amplitude with compounds of the invention was analyzed by fitting a 4-6 points dose-response curve allowing determination of the fifty percent inhibition concentration (IC50). P2 currents were normalized according to measurements made at baseline (Baseline, vehicle only), after compound (Input, at each test concentration), and after positive reference compound (FullResponse, to achieve complete block), fit to the following equation: […]
To assess current run-down over the course of the experiment vehicle-only wells were utilized and the normalized current with vehicle-only (n.IVEH) was determined. To correct the compound response for run-down, the currents were corrected according to the following formula: […]
Compound inhibition was fitted to the following Hill Equation to estimate the half maximal inhibition concentration (IC50)
[formula] • where Y is the normalized run-down corrected inhibition relative to the vehicle control (equivalent to n.IRD_Correct), C the test compound concentration, IC50 the concentration of test compound to inhibit the sodium current by 50%, and h the Hill coefficient.

Sequence of human Nav1.8 (Q9Y5Y9 whole entry): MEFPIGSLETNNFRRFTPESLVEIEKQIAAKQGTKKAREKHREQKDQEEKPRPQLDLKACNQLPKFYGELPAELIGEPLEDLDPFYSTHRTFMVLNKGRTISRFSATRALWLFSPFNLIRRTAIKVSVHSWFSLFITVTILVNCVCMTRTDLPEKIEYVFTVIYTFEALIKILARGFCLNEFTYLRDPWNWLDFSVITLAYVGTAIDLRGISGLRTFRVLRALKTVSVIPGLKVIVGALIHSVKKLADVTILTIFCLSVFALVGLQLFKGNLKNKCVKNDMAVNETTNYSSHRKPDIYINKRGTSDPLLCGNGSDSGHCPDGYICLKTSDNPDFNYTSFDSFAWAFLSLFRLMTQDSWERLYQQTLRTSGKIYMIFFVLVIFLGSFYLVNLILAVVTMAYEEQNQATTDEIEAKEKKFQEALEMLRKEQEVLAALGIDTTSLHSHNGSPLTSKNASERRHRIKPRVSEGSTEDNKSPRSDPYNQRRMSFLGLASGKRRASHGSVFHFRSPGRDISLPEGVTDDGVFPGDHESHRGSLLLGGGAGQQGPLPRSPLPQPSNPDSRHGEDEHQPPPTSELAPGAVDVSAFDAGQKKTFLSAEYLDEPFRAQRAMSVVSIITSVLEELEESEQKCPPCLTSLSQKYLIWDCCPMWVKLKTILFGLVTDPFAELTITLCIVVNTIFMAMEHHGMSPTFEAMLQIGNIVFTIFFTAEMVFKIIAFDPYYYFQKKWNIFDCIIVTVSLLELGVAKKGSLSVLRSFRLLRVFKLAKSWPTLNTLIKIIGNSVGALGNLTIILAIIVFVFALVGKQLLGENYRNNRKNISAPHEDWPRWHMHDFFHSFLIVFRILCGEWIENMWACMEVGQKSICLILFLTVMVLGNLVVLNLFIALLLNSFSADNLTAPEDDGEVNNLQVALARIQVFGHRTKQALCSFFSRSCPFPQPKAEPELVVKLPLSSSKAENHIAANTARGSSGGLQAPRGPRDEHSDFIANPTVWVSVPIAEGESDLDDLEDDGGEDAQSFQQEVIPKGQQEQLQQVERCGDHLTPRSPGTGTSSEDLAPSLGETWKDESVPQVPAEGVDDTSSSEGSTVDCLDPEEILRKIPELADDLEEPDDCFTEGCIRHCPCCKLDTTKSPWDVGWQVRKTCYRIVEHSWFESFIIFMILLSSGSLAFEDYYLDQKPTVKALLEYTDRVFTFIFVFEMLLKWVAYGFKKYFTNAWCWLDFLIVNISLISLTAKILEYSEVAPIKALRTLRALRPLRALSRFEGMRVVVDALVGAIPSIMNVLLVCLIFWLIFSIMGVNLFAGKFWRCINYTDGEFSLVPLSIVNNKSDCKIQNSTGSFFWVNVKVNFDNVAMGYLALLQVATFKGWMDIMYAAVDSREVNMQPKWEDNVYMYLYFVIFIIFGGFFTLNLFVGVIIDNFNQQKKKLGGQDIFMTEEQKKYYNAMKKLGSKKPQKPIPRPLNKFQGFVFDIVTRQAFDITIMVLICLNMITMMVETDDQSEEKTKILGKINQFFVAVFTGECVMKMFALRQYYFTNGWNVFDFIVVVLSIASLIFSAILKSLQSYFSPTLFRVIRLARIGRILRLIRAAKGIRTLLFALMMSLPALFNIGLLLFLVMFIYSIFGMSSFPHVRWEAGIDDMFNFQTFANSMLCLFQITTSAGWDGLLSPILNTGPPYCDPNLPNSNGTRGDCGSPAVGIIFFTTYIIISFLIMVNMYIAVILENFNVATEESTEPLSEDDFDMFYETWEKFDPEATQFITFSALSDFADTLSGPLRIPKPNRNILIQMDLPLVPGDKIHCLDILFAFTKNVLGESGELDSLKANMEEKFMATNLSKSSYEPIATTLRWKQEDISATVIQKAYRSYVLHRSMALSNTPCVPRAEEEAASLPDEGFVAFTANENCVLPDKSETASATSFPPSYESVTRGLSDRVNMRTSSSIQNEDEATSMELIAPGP
Sequence of human Nav1.8 (Q07699 19-218 partner): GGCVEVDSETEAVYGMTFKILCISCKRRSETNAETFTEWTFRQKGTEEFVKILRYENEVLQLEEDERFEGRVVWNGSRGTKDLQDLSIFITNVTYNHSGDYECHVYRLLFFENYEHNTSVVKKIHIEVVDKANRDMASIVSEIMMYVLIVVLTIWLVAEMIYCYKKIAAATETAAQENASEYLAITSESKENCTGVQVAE

Going from O=C1c2cc(C(F)(F)F)ccc2N2CN1c1ccc(=O)[nH]c1CCCOc1cc(F)ccc12 [Example 16, 8-Fluoro-2-(trifluoromethyl)-12,13-dihydro-11H,19H-5,18-methanodibenzo[b,e]pyrido[3,2-i][1]oxa[4,8]diazacyclotridecine-15,19(14H)-dione] to O=C1c2ccc(C(F)(F)F)cc2N2CN1c1ccc(=O)[nH]c1CCCCOc1cc(F)ccc12 [Example 18, 3^4-Fluoro-2^7-(trifluoromethyl)-1^1,1^2,2^1,2^2,2^3,2^4-hexahydro-4-oxa-2(3,1)-quinazolina-1(5,6)-pyridina-3(1,2)-benzenacyclooctaphane-1^2,2^4-dione], the “Nav1.8, pIC50” value rises from 6.0 to 6.5.

Compared with O=C1c2cc(C(F)(F)F)cnc2N2CN1c1ccc(=O)[nH]c1CCCCc1cc(OC(F)(F)F)ccc12 [Example 17, 8-(Trifluoromethoxy)-2-(trifluoromethyl)-10,11,12,13-tetahydro-19H,19H-5,18-methano-dibenzo[l]pyrido[2,3-b:3′,2′-f][1,5]diazacyclotridecine-15,19(14H)-dione], O=C1c2cc(C(F)(F)F)cnc2N2CN1c1ccc(=O)[nH]c1CCCCCc1cc(F)ccc12 [Example 23, 3^4-Fluoro-2^6-(trifluoromethyl)-1^1,1^2,2^1,2^2,2^3,2^4-hexahydro-2(3,1)-pyrido[2,3-d]pyrimidina-1(5,6)-pyridina-3(1,2)-benzenacyclooctaphane-1^2,2^4-dione] is higher in “Nav1.8, pIC50” value: 6.1 for the first, 7.2 for the second.

First: O=C1c2cc(Cl)cnc2N2CN1c1ccc(=O)[nH]c1CCCCCc1cc(F)ccc12 [Example 20, 2^6-Chloro-3^4-fluoro-1^1,1^2,2^1,2^2,2^3,2^4-hexahydro-2(3,1)-pyrido[2,3-d]pyrimidina-1(5,6)-pyridina-3(1,2)-benzenacyclooctaphane-1^2,2^4-dione]
Second: O=C1c2cc(C(F)(F)F)ncc2N2CN1c1ccc(=O)[nH]c1CCCCCc1cc(F)ccc12 [Example 21, 3^4-Fluoro-2^6-(trifluoromethyl)-1^1,1^2,2^1,2^2,2^3,2^4-hexahydro-2(3,1)-pyrido[3,4-d]pyrimidina-1(5,6)-pyridina-3(1,2)-benzenacyclooctaphane-1^2,2^4-dione]
The “Nav1.8, pIC50” value of the first is lower: 7.2 for the first, 7.6 for the second.

O=C1c2ccc(C(F)(F)F)nc2N2CN1c1ccc(=O)[nH]c1CCCCCc1cc(F)ccc12 [Example 22, 3^4-Fluoro-2^7-(trifluoromethyl)-1^1,1^2,2^1,2^2,2^3,2^4-hexahydro-2(3,1)-pyrido[2,3-d]pyrimidina-1(5,6)-pyridina-3(1,2)-benzenacyclooctaphane-1^2,2^4-dione] and O=C1c2ccc(C(F)(F)F)cc2N2CN1c1ccc(=O)[nH]c1NCCCc1cc(F)ccc12 [Example 28, 8-Fluoro-3-(trifluoromethyl)-10,11,12,13-tetrahydro-19H-5,18-methanodibenzo[f,i]pyrido[2,3-b][1,4,8]triazocyclotridecine-15,19(14H)-dione] are within 0.2 log units of each other in “Nav1.8, pIC50” value: 7.6 for the first, 7.5 for the second.

Compared with O=C1c2cc(C(F)(F)F)cnc2N2CN1c1ccc(=O)[nH]c1CC/C=C\Cc1cc(F)ccc12 [Example 24, 3^4-Fluoro-2^6-(trifluoromethyl)-1^1,1^2,2^1,2^2,2^3,2^4-hexahydro-2(3,1)-pyrido[2,3-d]pyrimidina-1(5,6)-pyridina-3(1,2)-benzenacyclooctaphan-5-ene-1^2,2^4-dione], O=C1c2cc(C(F)(F)F)cnc2N2CN1c1ccc(=O)[nH]c1NCCCc1cc(F)ccc12 [Example 34, 8-Fluoro-2-(trifluoromethyl)-10,11,12,13-tetrahydro-19H-5,18-methanodibenzo[i]dipyrido[2,3,-b:3′,2′-f][1,4,8]triazacyclotridecine-15,19(14H)-dione] is lower in “Nav1.8, pIC50” value: 7.7 for the first, 6.4 for the second.

First: O=C1c2cc(C(F)(F)F)ccc2N2CN1c1ccc(=O)[nH]c1CCCCNc1cc(F)ccc12 [Example 25, 3^4-Fluoro-2^6-(trifluoromethyl)-1^1,1^2,2^1,2^2,2^3,2^4-hexahydro-4-aza-2(3,1)-quinazolina-1(5,6)-pyridina-3(1,2)-benzenacyclooctaphan-1^2,2^4-dione]
Second: O=C1c2cc(C(F)(F)F)ccc2N2CN1c1ccc(=O)[nH]c1NCCCc1cc(F)ccc12 [Example 27, 8-Fluoro-2-(trifluoromethyl)-10,11,12,13-tetrahydro-19H-5,18-methanodibenzo[f,i]pyrido[2,3-b][1,4,8]triazocyclotridecine-15,19(14H)-dione]
The “Nav1.8, pIC50” value of the first is lower: 6.2 for the first, 7.8 for the second.

Compared with O=C1c2cc(C(F)(F)F)ccc2N2CN1c1cc[n+]([O-])cc1CCCCCc1cc(F)ccc12 [Example 26, 3^4-Fluoro-2^4-oxo-2^6-(trifluoromethyl)-2^1,2^2,2^3,2^4-tetrahydro-2(3,1)-quinazolina-1(4,3)-pyridin-1-iuma-3(1,2)-benzenacyclooctaphan-1-oxide], CN1CCCc2cc(F)ccc2N2CN(C(=O)c3cc(C(F)(F)F)ccc32)c2ccc(=O)[nH]c21 [Example 30, 8-Fluoro-13-methyl-2-(trifluoromethyl)-10,11,12,13-tetrahydro-19H-5,18-methanodibenzo[f,i]pyrido[2,3,-b][1,4,8]triazacyclotridecine-15,19(14H)-dione] is lower in “Nav1.8, pIC50” value: 8.3 for the first, 6.9 for the second.

Going from O=C1c2cc(C(F)(F)F)ccc2N2CN1c1cc(Cl)c(=O)[nH]c1NCCCc1cc(F)ccc12 [Example 29, 16-Chloro-8-fluoro-2-(trifluoromethyl)-10,11,12,13-tetrahydro-19H-5,18-methanodibenzo[f,i]pyrido[2,3,-b][1,4,8]triazacyclotridecine-15,19(14H)-dione] to O=C1c2cc(F)c(C(F)(F)F)cc2N2CN1c1ccc(=O)[nH]c1NCCCc1cc(F)ccc12 [Example 32, 2,8-Difluoro-3-(trifluoromethyl)-10,11,12,13-tetrahydro-19H-5,18-methanodibenzo[f,i]pyrido[2,3,-b][1,4,8]triazacyclotridecine-15,19(14H)-dione], the “Nav1.8, pIC50” value rises from 7.1 to 8.4.

Compared with O=C1c2cc(OC(F)(F)F)ccc2N2CN1c1ccc(=O)[nH]c1NCCCc1cc(F)ccc12 [Example 31, 8-Fluoro-2-(trifluoromethoxy)-10,11,12,13-tetrahydro-19H-5,18-methanodibenzo[f,i]pyrido[2,3,-b][1,4,8]triazacyclotridecine-15,19(14H)-dione], O=C1c2cc(C(F)(F)F)ncc2N2CN1c1ccc(=O)[nH]c1NCCCc1cc(F)ccc12 [Example 35, 8-Fluoro-2-(trifluoromethyl)-10,11,12,13-tetrahydro-19H-5,18-methanodibenzo[i]dipyrido[2,3,-b:4′,3′-f][1,4,8]triazacyclotridecine-15,19(14H)-dione] is lower in “Nav1.8, pIC50” value: 7.5 for the first, 6.9 for the second.

Going from O=C1c2c(ccc(C(F)(F)F)c2F)N2CN1c1ccc(=O)[nH]c1NCCCc1cc(F)ccc12 [Example 33, 1,8-Difluoro-2-(trifluoromethyl)-10,11,12,13-tetrahydro-19H-5,18-methanodibenzo[f,i]pyrido[2,3,-b][1,4,8]triazacyclotridecine-15,19(14H)-dione] to O=C1c2cnc(C(F)(F)F)cc2N2CN1c1ccc(=O)[nH]c1NCCCc1cc(F)ccc12 [Example 36, 8-Fluoro-3-(trifluoromethyl)-10,11,12,13-tetrahydro-19H-5,18-methanodibenzo[i]dipyrido[2,3,-b:3′,4′-f][1,4,8]triazacyclotridecine-15,19(14H)-dione], the “Nav1.8, pIC50” value falls from 7.5 to 6.6.
